In patent publication US9090583B2, “Benzopyrone estrogen receptor regulator” (BEIJING SHENOGEN PHARMA GROUP LTD., priority 2010, dated 2015):
In brackets after ≈: the same amount, converted by molar mass. Where two headings read alike, the source gives them in different places.

Key:
MCF7 cells = assay: CellTiter-Glo Luminescent Cell Viability Assay on ER-positive breast cancer MCF-7 cells; format: cell-based, human; details: average ± standard deviation when tested more than 3 times, read-out: Inhibition of the viability of breast cancer cells, IC50
Description: B: In Vitro CellTiter-Glo® Luminescent Cell Viability Assay on ER-Positive Breast Cancer MCF-7 Cells:
MCF7 cells are breast cancer cell lines that highly express ER-66, ER-46 and ER-36. (Relevance of breast cancer cell lines as models for breast tumours: an update. Marc Lacroix, Guy Leclercq, Breast Cancer Research and Treatment (2004) 83, 249-289; Wang et al., Proc. Natl. Acad. Sci. U.S.A. 103:9063-9068 (2006)). MCF7 cells were obtained from ATCC and maintained in Dulbecco's Modified Eagles Medium (DMEM) and 10% fetal calf serum at 37° C., under 5% CO2 atmosphere. The cells were seeded on 96-well plate at a density of 6×10^3 cells per well. MCF7 cells were treated with a test compound dissolved in DMSO at the concentrations of zero, 0.3 μM, 0.5 μM, 1 μM, 2 μM, 3 μM, 5 μM, 10 μM, 20 μM, 30 μM, 50 μM and 100 μM for 72 hours. Treated cells were examined by CellTiter-Glo® Luminescent Cell Viability Assay Kit (Promega), and luminescence values were recorded with Envision.

Hep3B2.1-7 cells = assay: MTT assay, in vitro growth of liver cancer Hep3B2.1-7 cells; format: cell-based; details: 72 hours; for IC50: read-out: Inhibition on liver cancer cells, IC50
Method: The liver cancer Hep3B2.1-7 cells were obtained from ATCC. Cells were incubated in 1640 culture medium with 5% fetal calf serum and 100 U/ml double-antibody in a cell incubator at 37° C., 5% CO2 atmosphere and passaged via conventional methods. The sample was dissolved in DMSO, formulated into 50 mg/ml stocking solution, and stored at 4° C. The test solutions at 50, 25, 12.5 and 6.25 μg/ml were formulated with culture medium immediately before use.
The adherent cells were digested with cell digestive solution, and then the exfoliated cells were collected and counted. The cell suspension was formulated with 1640 culture medium containing 5% fetal calf serum (5.0×10^4/ml). The cell suspension was seeded on 96-well plate with 100 μl/well, and maintained in a cell incubator at 37° C., 5% CO2 atmosphere for 24 hours. After that, the compounds at various concentrations were added, where solvent was taken as negative control and Taxol as positive control. 10 μl MTT (5 mg/ml) was added after 72 hours. The supernatant was removed after cultivation for 3 hours more, 150 μl DMSO was added and the formazan was dissolved on shaking. OD values were measured at 570 nm after homogeneous mixing, and inhibition rate and IC50 values were calculated based on the mean of OD values from 3 wells.

MDA-MB-231 cells = assay: CellTiter-Glo Luminescent Cell Viability Assay on ER-negative breast cancer MDA-MB-231 cells; format: cell-based; details: average ± standard deviation when tested more than 3 times, read-out: Inhibition of the viability of breast cancer cells, IC50
Method: A: In Vitro CellTiter-Glo® Luminescent Cell Viability Assay on ER-Negative Breast Cancer MDA-MB-231 Cells:
MDA-MB-231 cells were maintained at 37° C., under 5% CO2 atmosphere in DMEM containing 10% fetal calf serum. The cells were seeded on 96-well plate at a density of 6×10^3 cells per well. MDA-MB-231 cells were treated with a test compound dissolved in DMSO at the concentrations of zero, 0.3 μM, 0.5 μM, 1 μM, 2 μM, 3 μM, 5 μM, 10 μM, 20 μM, 30 μM, 50 μM and 100 μM for 72 hours. Treated cells were examined by CellTiter-Glo® Luminescent Cell Viability Assay Kit (Promega), and luminescence values were recorded with Envision.

| Compound | IC50 (MCF7 cells; Homo sapiens, MCF7, 72 h) | IC50 (Hep3B2.1-7 cells) | IC50 (MDA-MB-231 cells; Homo sapiens, MDA-MB-231, 72 h) | IC50 (MCF7 cells; 72 hours) | Inhibition on liver cancer cells, IC50 (Hep3B2.1-7 cells) | IC50 (MDA-MB-231 cells; 72 hours) |
| --- | --- | --- | --- | --- | --- | --- |
| COc1c(-c2ccc(S(=O)(=O)N(C)C)cc2)oc2c(CC=C(C)C)c(O)c(CC=C(C)C)c(O)c2c1=O [Compound 69, 4-[5,7-dihydroxy-3-methoxy-6,8-di(3-methyl-2-buten-1-yl)-4-oxo-4H-benzopyran-2-yl]-N,N-dimethylbenzene sulfonamide] | > 100 µM | 3.89 mg/L (≈ 7.37 µM) | 1.87 µM |  |  |  |
| COc1c(-c2ccc(Cl)cc2)oc2c(CC=C(C)C)c(O)c(CC=C(C)C)c(O)c2c1=O [Compound 10, 2-(4-chlorophenyl)-5,7-dihydroxy-3-methoxy-6,8-di(3-methyl-2-butylene-1-yl)-4H-benzopyran-4-one] |  |  |  | > 100 µM | 9.43 mg/L | 8.89 µM |
| 2-(4-fluoromethoxyphenyl)-5,7-dihydroxy-3-methoxy-6,8-di(3-methyl-2-buten-1-yl)-4H-benzopyran-4-one [Compound 61] |  |  |  | 3.52 µM | 0.04 mg/L | 3.28 µM |
| COc1c(-c2ccc(O)c(C)c2)oc2c(CC=C(C)C)c(O)c(CC=C(C)C)c(O)c2c1=O [Compound 75, 2-(3-methyl-4-hydroxyphenyl)-5,7-dihydroxy-3-methoxy-6,8-di(3-methyl-2-buten-1-yl)-4H-benzopyran-4-one] | 49 µM | 0.83 mg/L (≈ 1.84 µM) | 11.6 µM |  |  |  |
| COc1c(-c2ccc(C(C)(C)O)cc2)oc2c(CC=C(C)C)c(O)c(CC=C(C)C)c(O)c2c1=O [Compound 66] |  |  |  | 3.91 µM | 0.24 mg/L | 2.86 µM |
| COc1c(-c2ccc(O)c(C(F)(F)F)c2)oc2c(CC=C(C)C)c(O)c(CC=C(C)C)c(O)c2c1=O [Compound 77, 2-(3-trifluoromethyl-4-hydroxyphenyl)-5,7-dihydroxy-3-methoxy-6,8-di(3-methyl-2-buten-1-yl)-4H-benzopyran-4-one] | > 100 µM | 3.08 mg/L (≈ 6.11 µM) | 15.4 µM |  |  |  |
| CNS(=O)(=O)c1ccc(-c2oc3c(CC=C(C)C)c(O)c(CC=C(C)C)c(O)c3c(=O)c2OC)cc1 [Compound 70, 4-[5,7-dihydroxy-3-methoxy-6,8-di(3-methyl-2-buten-1-yl)-4-oxo-4H-benzopyran-2-yl]N-methylbenzene sulfonamide] | > 100 µM | 0.39 mg/L (≈ 0.759 µM) | 7.64 µM |  |  |  |
| COc1c(-c2cnn(C)c2)oc2c(CC=C(C)C)c(O)c(CC=C(C)C)c(O)c2c1=O [Compound 46, 2-(1-methyl-1H-pyrazol-4-yl)-5,7-dihydroxy-3-methoxy-6,8-di(3-methyl-2-buten-1-yl)-4H-benzopyran-4-one] | > 100 µM |  | > 100 µM |  |  |  |
| COc1c(C2CCCC2)oc2c(CC=C(C)C)c(O)c(CC=C(C)C)c(O)c2c1=O [Compound 36, 2-cyclopentyl-5,7-dihydroxy-3-methoxy-6,8-di(3-methyl-2-buten-1-yl)-4H-benzopyran-4-one] | > 100 µM |  | > 100 µM |  |  |  |
| COc1c(-c2cncs2)oc2c(CC=C(C)C)c(O)c(CC=C(C)C)c(O)c2c1=O [Compound 68, 2-(thiazol-5-yl)-5,7-dihydroxy-3-methoxy-6,8-di(3-methyl-2-buten-1-yl)-4H-benzopyran-4-one] |  |  |  | 8.89 µM |  | 23.8 µM |
| CC(C)=CCc1c(O)c(CC=C(C)C)c2oc(-c3ccc(Cl)c(F)c3)cc(=O)c2c1O [Compound 86, 2-(3-fluoro-4-chlorophenyl)-5,7-dihydroxy-6,8-di(3-methyl-2-buten-1-yl)-4H-benzopyran-4-one] | > 100 µM |  | > 100 µM |  |  |  |
| CC(=O)O[C@H]1C(=O)[C@@]2(C)[C@H]([C@H](OC(=O)c3ccccc3)[C@]3(O)C[C@H](OC(=O)[C@H](O)[C@@H](NC(=O)c4ccccc4)c4ccccc4)C(C)=C1C3(C)C)[C@]1(OC(C)=O)CO[C@@H]1C[C@@H]2O [Taxol, reference compound] |  | 42.8 mg/L (≈ 50.1 µM) |  |  |  |  |
| CC(C)=CCc1c(O)c(CC=C(C)C)c2oc(-c3ccc(Cl)c(Cl)c3)cc(=O)c2c1O [Compound 88, 2-(3,4-dichlorophenyl)-5,7-dihydroxy-6,8-di(3-methyl-2-buten-1-yl)-4H-benzopyran-4-one] | > 100 µM |  | 16.1 µM |  |  |  |
| COc1c(-c2ccc(F)nc2)oc2c(CC=C(C)C)c(O)c(CC=C(C)C)c(O)c2c1=O [Compound 54, 2-(6-fluoropyridin-3-yl)-5,7-dihydroxy-3-methoxy-6,8-di(3-3-methyl-2-buten-1-yl)-4H-benzopyran-4-one] |  |  |  | 7.06 ± 3.16 µM |  | 10.3 ± 0.38 µM |
| 2-(benzo[b]thiazol-2-yl)-5,7-dihydroxy-3-methoxy-6,8-di(3-3-methyl-2-buten-1-yl)-4H-benzopyran-4-one [Compound 49] |  |  |  | 17.8 µM |  | 17.9 µM |
| CC(C)=CCc1c(O)c(CC=C(C)C)c2oc(-c3ccc(Cl)cc3)cc(=O)c2c1O [Compound 91, 2-(4-chlorophenyl)-5,7-dihydroxy-6,8-di(3-methyl-2-buten-1-yl)-4H-benzopyran-4-one] | > 100 µM |  | 8.89 µM |  |  |  |

Further compounds by falling IC50 (MCF7 cells; Homo sapiens, MCF7, 72 h), results first:

| IC50 (MCF7 cells; Homo sapiens, MCF7, 72 h) | IC50 (Hep3B2.1-7 cells) | IC50 (MDA-MB-231 cells; Homo sapiens, MDA-MB-231, 72 h) | IC50 (MCF7 cells; 72 hours) | Inhibition on liver cancer cells, IC50 (Hep3B2.1-7 cells) | IC50 (MDA-MB-231 cells; 72 hours) | Compound |
| --- | --- | --- | --- | --- | --- | --- |
| 20.4 µM |  | 13.6 µM |  |  |  | COc1c(-c2cc3ccccc3o2)oc2c(CC=C(C)C)c(O)c(CC=C(C)C)c(O)c2c1=O [Compound 50, 2-(benzofuran-2-yl)-5,7-dihydroxy-3-methoxy-6,8-di(3-methyl-2-buten-1-yl)-4H-benzopyran-4-one] |
| 12 µM |  | > 100 µM |  |  |  | COc1c(-c2ccccn2)oc2c(CC=C(C)C)c(O)c(CC=C(C)C)c(O)c2c1=O [Compound 29, 2-(pyridin-2-yl)-5,7-dihydroxy-3-methoxy-6,8-di(3-methyl-2-buten-1-yl)-4H-benzopyran-4-one] |
| 6.06 µM | 14 mg/L (≈ 28 µM) | 4.87 µM |  |  |  | COc1c(-c2ccc(S(N)(=O)=O)cc2)oc2c(CC=C(C)C)c(O)c(CC=C(C)C)c(O)c2c1=O [Compound 63, 4-[5,7-dihydroxy-3-methoxy-6,8-di(3-methyl-2-buten-1-yl)-4-oxo-4H-benzopyran-2-yl]benzene sulfonamide] |
| 5.46 µM | 8.95 mg/L (≈ 19.7 µM) | 5.36 µM |  |  |  | COc1c(-c2ccc(F)c(O)c2)oc2c(CC=C(C)C)c(O)c(CC=C(C)C)c(O)c2c1=O [Compound 78, 2-(3-hydroxy-4-fluorophenyl)-5,7-dihydroxy-3-methoxy-6,8-di(3-methyl-2-buten-1-yl)-4H-benzopyran-4-one] |
| 5.33 µM | 8.23 mg/L (≈ 18.1 µM) | 3.64 µM |  |  |  | COc1c(-c2ccc(O)c(F)c2)oc2c(CC=C(C)C)c(O)c(CC=C(C)C)c(O)c2c1=O [Compound 79, 2-(3-fluoro-4-hydroxyphenyl)-5,7-dihydroxy-3-methoxy-6,8-di(3-methyl-2-buten-1-yl)-4H-benzopyran-4-one] |
| 4.84 µM | 21 mg/L (≈ 47.2 µM) | 2.85 µM |  |  |  | COc1c(-c2ccc(C#N)cc2)oc2c(CC=C(C)C)c(O)c(CC=C(C)C)c(O)c2c1=O [Compound 57, 4-[5,7-dihydroxy-3-methoxy-6,8-di(3-methyl-2-butenyl)-4-oxo-4H-benzopyran-2-yl]benzonitrile] |
| 4.17 ± 2.45 µM |  | 5.51 ± 0.02 µM |  |  |  | COc1c(-c2ccnc(Cl)c2)oc2c(CC=C(C)C)c(O)c(CC=C(C)C)c(O)c2c1=O [Compound 55, 2-(2-chloropyridin-4-yl)-5,7-dihydroxy-3-methoxy-6,8-di(3-methyl-2-buten-1-yl)-4H-benzopyran-4-one] |
| 4.08 µM | 5.79 mg/L (≈ 12.3 µM) | 3 µM |  |  |  | COc1c(-c2ccc(O)c(Cl)c2)oc2c(CC=C(C)C)c(O)c(CC=C(C)C)c(O)c2c1=O [Compound 76, 2-(3-chloro-4-hydroxyphenyl)-5,7-dihydroxy-3-methoxy-6,8-di(3-methyl-2-buten-1-yl)-4H-benzopyran-4-one] |
